Source: the supplement of paper PMC10307832

Tests used:
Test in all cases: relative viability (nuclei count vs DMSO), 5 days (fraction); higher = more cells survive
VE-821 + Decitabine = compound: CS(=O)(=O)c1ccc(-c2cnc(N)c(C(=O)Nc3ccccc3)n2)cc1 [VE-821] + Nc1ncn([C@H]2C[C@H](O)[C@@H](CO)O2)c(=O)n1 [Decitabine] (partner 2 µM)
Outline: (§1)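 Five library-drug doses in √10 steps were combined with a fixed anchor-drug dose, or a single drug was given alone, by pin tool to lung cancer cell lines in 1536-well plates the day after seeding. Nuclei were stained and counted after 5 days. Relative viability is the nuclei count in treated wells over that in vehicle wells, taken as the median of duplicate plates.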

VE-821 + Pemetrexed = compound: CS(=O)(=O)c1ccc(-c2cnc(N)c(C(=O)Nc3ccccc3)n2)cc1 [VE-821] + Nc1nc2[nH]cc(CCc3ccc(C(=O)N[C@@H](CCC(=O)O)C(=O)O)cc3)c2c(=O)[nH]1 [Pemetrexed] (partner 0.2 µM)
Outline: as §1

VE-821 + AZD7762 = compound: CS(=O)(=O)c1ccc(-c2cnc(N)c(C(=O)Nc3ccccc3)n2)cc1 [VE-821] + NC(=O)Nc1cc(-c2cccc(F)c2)sc1C(=O)N[C@H]1CCCNC1 [AZD7762] (partner 0.2 µM)
Outline: as §1

Ruxolitinib + Trametinib = compound: N#CC[C@H](C1CCCC1)n1cc(-c2ncnc3[nH]ccc23)cn1 [Ruxolitinib] + CC(=O)Nc1cccc(-n2c(=O)n(C3CC3)c(=O)c3c(Nc4ccc(I)cc4F)n(C)c(=O)c(C)c32)c1 [Trametinib] (partner 0.02 µM)
Outline: as §1

Row | Cell Line | relative viability (VE-821 + Decitabine; first compound 0.08 µM) | relative viability (VE-821 + Decitabine; first compound 0.253 µM) | relative viability (VE-821 + Decitabine; first compound 0.8 µM) | relative viability (VE-821 + Decitabine; first compound 2.53 µM) | relative viability (VE-821 + Decitabine; first compound 8 µM) | relative viability (VE-821 + Pemetrexed; first compound 0.08 µM) | relative viability (VE-821 + Pemetrexed; first compound 0.253 µM) | relative viability (VE-821 + Pemetrexed; first compound 0.8 µM) | relative viability (VE-821 + Pemetrexed; first compound 2.53 µM) | relative viability (VE-821 + Pemetrexed; first compound 8 µM) | relative viability (VE-821 + AZD7762; first compound 0.08 µM) | relative viability (VE-821 + AZD7762; first compound 0.253 µM) | relative viability (VE-821 + AZD7762; first compound 0.8 µM) | relative viability (VE-821 + AZD7762; first compound 2.53 µM) | relative viability (VE-821 + AZD7762; first compound 8 µM) | relative viability (Ruxolitinib + Trametinib; first compound 0.08 µM) | relative viability (Ruxolitinib + Trametinib; first compound 0.253 µM) | relative viability (Ruxolitinib + Trametinib; first compound 0.8 µM) | relative viability (Ruxolitinib + Trametinib; first compound 2.53 µM) | relative viability (Ruxolitinib + Trametinib; first compound 8 µM)
1 | NCI-H1734 | 0.585 | 0.473 | 0.515 | 0.522 | 0.448 | 0.413 | 0.391 | 0.374 | 0.351 | 0.297 | 0.4 | 0.428 | 0.334 | 0.334 | 0.184 | 0.66 | 0.647 | 0.635 | 0.462 | 0.607
2 | NCI-H1755 | 0.734 | 0.754 | 0.866 | 0.867 | 0.831 | 0.464 | 0.655 | 0.431 | 0.361 | 0.247 | 0.434 | 0.368 | 0.38 | 0.323 | 0.175 | 0.803 | 0.777 | 0.796 | 0.549 | 0.694
3 | NCI-H1792 | 0.639 | 0.536 | 0.482 | 0.586 | 0.529 | 1.19 | 0.59 | 0.865 | 0.996 | 0.568 | 0.665 | 0.432 | 0.328 | 0.196 | 0.135 | 0.38 | 0.498 | 0.407 | 0.347 | 0.359
4 | NCI-H1793 | 0.55 | 0.468 | – | 0.637 | 0.461 | 1.2 | 0.769 | – | 1.13 | 0.565 | 0.381 | 0.267 | – | 0.252 | 0.214 | 0.406 | 0.42 | 0.466 | 0.338 | 0.364
5 | NCI-H1915 | 0.284 | 0.262 | 0.312 | 0.266 | 0.318 | 0.499 | 0.432 | 0.344 | 0.311 | 0.23 | 0.7 | 0.618 | 0.594 | 0.537 | 0.321 | 0.315 | 0.311 | 0.325 | 0.153 | 0.253
6 | NCI-H1944 | 0.418 | 0.408 | 0.418 | 0.438 | 0.343 | 0.693 | 0.695 | 0.495 | 0.384 | 0.172 | 0.527 | 0.402 | 0.296 | 0.277 | 0.121 | 0.391 | 0.386 | 0.422 | 0.304 | 0.369
7 | NCI-H1975 | 0.4 | 0.38 | 0.358 | 0.381 | 0.324 | 0.297 | 0.282 | 0.264 | 0.213 | 0.167 | 0.75 | 0.69 | 0.667 | 0.604 | 0.462 | 0.277 | 0.432 | 0.412 | 0.269 | 0.152
8 | NCI-H1993 | 0.607 | 0.557 | 0.596 | 0.568 | 0.486 | 0.6 | 0.596 | 0.35 | 0.638 | 0.601 | 0.958 | 0.669 | 0.603 | 0.723 | 0.552 | 0.433 | 0.734 | 0.573 | 0.49 | 0.443
9 | NCI-H2085 | 0.539 | 0.528 | 0.778 | – | 0.538 | 0.936 | 0.848 | 0.61 | – | 0.612 | 0.952 | 0.843 | 0.366 | – | 0.271 | 0.639 | 0.548 | 0.624 | 0.483 | 0.575
